# Test results: ChEMBL document CHEMBL1909046, “DrugMatrix in vitro pharmacology data”
# Experiments:
# [1] = target: Sigma non-opioid intracellular receptor 1 (Homo sapiens, UniProt Q99720); experiment: DRUGMATRIX: Sigma1 radioligand binding (ligand: [3H] Haloperidol); assay type: cell membranes, Jurkat, Membrane; conditions: jurkat; Not Active = under 50% inhibition at 10 µM
# [2] = target: T1, Alpha-1D adrenergic receptor (Homo sapiens, UniProt P25100); assay type: cell membranes, HEK293, Membrane; further: in other assays of this panel Not Active means under 50% inhibition at 10 µM
# T1 sequence (P25100 whole entry): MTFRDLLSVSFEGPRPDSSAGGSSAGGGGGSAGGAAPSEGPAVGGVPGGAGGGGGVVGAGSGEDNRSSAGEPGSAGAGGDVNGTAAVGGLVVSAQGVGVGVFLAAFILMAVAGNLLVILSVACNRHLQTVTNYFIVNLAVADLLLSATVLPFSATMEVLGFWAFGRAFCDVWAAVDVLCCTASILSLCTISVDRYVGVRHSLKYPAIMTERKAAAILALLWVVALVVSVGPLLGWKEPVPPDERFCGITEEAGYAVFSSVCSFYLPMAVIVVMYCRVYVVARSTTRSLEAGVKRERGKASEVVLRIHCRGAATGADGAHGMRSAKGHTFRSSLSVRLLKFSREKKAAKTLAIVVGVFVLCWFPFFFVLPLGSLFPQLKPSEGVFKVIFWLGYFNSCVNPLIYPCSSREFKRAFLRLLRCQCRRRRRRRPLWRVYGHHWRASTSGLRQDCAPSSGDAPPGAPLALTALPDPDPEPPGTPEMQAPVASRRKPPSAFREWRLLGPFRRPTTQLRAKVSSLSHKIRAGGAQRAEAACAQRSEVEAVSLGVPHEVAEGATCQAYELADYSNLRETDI
# [3] = DRUGMATRIX: GABAA, Muscimol, Central radioligand binding (ligand: [3H] Muscimol); assay type: cell membranes, Rattus norvegicus, Wistar, Brain, Membrane; conditions: Not Active = under 50% inhibition at 10 µM
# [4] = target: Beta-3 adrenergic receptor (Homo sapiens, UniProt P13945); experiment: DRUGMATRIX: Adrenergic beta3 radioligand binding (ligand: [125I] Cyanopindolol); assay type: cell membranes, HEK293, Membrane; conditions: Not Active = under 50% inhibition at 10 µM
# Sequence of Beta-3 adrenergic receptor (P13945 whole entry): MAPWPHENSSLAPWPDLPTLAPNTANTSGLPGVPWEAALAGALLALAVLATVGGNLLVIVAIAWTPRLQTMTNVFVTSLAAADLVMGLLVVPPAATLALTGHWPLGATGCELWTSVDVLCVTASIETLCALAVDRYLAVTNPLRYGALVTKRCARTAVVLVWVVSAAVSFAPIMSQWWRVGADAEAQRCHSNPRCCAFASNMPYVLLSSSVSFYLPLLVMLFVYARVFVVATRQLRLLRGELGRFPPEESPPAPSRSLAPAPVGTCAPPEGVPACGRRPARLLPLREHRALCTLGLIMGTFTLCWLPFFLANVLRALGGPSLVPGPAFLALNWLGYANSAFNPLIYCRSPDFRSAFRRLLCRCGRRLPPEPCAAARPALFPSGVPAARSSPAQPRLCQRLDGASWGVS
# Insulin receptor = Insulin receptor (Rattus norvegicus, UniProt P15127); assay type: cell membranes, Wistar, Liver, Membrane; further: in other assays of this panel Not Active means under 50% inhibition at 10 µM
# Sequence of Insulin receptor (P15127 27-759 limits assumed): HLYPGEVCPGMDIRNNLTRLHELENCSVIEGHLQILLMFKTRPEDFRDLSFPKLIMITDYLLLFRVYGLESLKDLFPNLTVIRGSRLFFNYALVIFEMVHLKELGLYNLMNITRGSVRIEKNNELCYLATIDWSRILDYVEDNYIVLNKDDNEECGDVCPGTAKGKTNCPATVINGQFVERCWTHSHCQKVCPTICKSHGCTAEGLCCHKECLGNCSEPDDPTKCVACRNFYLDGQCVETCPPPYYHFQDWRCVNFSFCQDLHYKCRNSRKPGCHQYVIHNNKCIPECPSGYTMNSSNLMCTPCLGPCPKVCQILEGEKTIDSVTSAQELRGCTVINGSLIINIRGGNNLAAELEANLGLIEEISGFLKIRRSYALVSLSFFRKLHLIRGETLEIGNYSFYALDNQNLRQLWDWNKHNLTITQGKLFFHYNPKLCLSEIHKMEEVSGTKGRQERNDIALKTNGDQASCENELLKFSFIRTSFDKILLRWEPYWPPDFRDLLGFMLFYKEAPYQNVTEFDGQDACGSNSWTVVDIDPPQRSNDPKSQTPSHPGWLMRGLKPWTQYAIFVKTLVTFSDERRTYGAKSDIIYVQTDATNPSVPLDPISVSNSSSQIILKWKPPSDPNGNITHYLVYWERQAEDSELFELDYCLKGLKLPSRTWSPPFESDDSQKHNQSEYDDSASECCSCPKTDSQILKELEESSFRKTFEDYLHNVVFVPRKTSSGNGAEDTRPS
# Sequence of Insulin receptor (P15127 764-1383 limits assumed): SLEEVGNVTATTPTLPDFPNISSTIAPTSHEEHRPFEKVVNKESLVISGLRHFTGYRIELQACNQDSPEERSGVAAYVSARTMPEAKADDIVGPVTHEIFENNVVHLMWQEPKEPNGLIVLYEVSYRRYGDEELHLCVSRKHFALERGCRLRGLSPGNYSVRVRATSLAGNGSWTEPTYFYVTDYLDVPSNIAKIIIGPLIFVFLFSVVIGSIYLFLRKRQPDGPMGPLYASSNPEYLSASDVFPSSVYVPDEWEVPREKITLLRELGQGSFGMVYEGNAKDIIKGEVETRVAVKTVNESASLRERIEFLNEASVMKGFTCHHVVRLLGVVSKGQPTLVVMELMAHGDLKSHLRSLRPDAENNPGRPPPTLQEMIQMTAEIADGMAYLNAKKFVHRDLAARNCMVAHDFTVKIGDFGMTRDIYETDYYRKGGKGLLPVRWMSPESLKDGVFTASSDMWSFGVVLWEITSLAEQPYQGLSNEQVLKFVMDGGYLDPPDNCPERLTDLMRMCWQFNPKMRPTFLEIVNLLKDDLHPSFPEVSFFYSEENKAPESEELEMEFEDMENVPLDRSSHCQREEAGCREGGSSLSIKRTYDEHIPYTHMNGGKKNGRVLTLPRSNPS
# Melanocortin receptor 4 = Melanocortin receptor 4 (Homo sapiens, UniProt P32245); assay type: cell membranes, Membrane; conditions: hek293; further: in other assays of this panel Not Active means under 50% inhibition at 10 µM
# Sequence of Melanocortin receptor 4 (P32245 whole entry): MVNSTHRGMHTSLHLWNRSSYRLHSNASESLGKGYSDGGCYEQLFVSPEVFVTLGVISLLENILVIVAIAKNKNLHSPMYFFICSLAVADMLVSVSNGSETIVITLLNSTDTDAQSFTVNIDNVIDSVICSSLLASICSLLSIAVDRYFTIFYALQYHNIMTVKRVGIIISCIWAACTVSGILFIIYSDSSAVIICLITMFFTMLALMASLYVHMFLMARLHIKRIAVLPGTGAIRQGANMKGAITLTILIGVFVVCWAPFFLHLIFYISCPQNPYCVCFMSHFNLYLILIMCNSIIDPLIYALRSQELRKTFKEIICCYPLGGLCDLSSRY
# [5] = DRUGMATRIX: Calcium Channel Type L, Benzothiazepine radioligand binding (ligand: [3H] Diltiazem); assay type: cell membranes, Rattus norvegicus, Wistar, Brain, Membrane; conditions: Not Active = under 50% inhibition at 10 µM
# [6] = DRUGMATRIX: Calcium Channel Type L, Phenylalkylamine radioligand binding (ligand: [3H] (-)-Desmethoxyverapamil (D-888)); assay type: cell membranes, Rattus norvegicus, Wistar, Brain, Membrane; conditions: Not Active = under 50% inhibition at 10 µM
# [7] = DRUGMATRIX: Serotonin (5-Hydroxytryptamine) 5-HT3 radioligand binding (ligand: [3H] GR-65630); assay type: cell membranes, Membrane; conditions: hek293, Not Active = under 50% inhibition at 10 µM
# [8] = target: Beta-1 adrenergic receptor (Homo sapiens, UniProt P08588); experiment: DRUGMATRIX: Adrenergic beta1 radioligand binding (ligand: [125I] Cyanopindolol); assay type: cell membranes, CHO-K1, Membrane; conditions: cho-k1; Not Active = under 50% inhibition at 10 µM
# Sequence of Beta-1 adrenergic receptor (P08588 whole entry): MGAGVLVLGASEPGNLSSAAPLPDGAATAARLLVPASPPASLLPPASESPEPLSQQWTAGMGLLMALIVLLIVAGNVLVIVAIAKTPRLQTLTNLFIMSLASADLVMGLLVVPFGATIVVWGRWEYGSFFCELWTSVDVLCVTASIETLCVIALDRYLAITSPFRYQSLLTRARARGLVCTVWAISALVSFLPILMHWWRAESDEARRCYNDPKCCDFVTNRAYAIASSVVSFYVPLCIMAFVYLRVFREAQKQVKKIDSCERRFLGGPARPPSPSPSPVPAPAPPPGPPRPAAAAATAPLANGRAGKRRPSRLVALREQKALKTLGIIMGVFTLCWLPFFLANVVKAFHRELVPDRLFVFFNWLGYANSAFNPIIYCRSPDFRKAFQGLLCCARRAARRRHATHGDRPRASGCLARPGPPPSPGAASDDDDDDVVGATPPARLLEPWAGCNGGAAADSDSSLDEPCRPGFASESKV
# Mu-type opioid receptor = Mu-type opioid receptor (Homo sapiens, UniProt P35372); experiment: DRUGMATRIX: Opiate mu (OP3, MOP) radioligand binding (ligand: [3H] Diprenorphine); assay type: cell membranes, CHO-K1, Membrane; conditions: cho-k1; Not Active = under 50% inhibition at 10 µM
# Sequence of Mu-type opioid receptor (P35372 whole entry): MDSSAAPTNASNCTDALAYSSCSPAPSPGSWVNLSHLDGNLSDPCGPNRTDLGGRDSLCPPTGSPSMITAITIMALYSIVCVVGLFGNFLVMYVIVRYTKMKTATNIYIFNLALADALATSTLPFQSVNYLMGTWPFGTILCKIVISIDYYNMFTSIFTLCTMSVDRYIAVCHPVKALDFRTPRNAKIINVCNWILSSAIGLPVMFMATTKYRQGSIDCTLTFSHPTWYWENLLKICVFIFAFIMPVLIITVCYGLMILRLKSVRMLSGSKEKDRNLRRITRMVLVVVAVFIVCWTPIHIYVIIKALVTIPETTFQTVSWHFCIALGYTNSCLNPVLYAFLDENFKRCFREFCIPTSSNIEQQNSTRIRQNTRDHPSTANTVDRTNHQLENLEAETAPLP
# [9] = target: 5-hydroxytryptamine receptor 1B (Rattus norvegicus, UniProt P28564); assay type: cell membranes, Wistar, Cerebral cortex, Membrane; further: in other assays of this panel Not Active means under 50% inhibition at 10 µM
# Sequence of 5-hydroxytryptamine receptor 1B (P28564 whole entry): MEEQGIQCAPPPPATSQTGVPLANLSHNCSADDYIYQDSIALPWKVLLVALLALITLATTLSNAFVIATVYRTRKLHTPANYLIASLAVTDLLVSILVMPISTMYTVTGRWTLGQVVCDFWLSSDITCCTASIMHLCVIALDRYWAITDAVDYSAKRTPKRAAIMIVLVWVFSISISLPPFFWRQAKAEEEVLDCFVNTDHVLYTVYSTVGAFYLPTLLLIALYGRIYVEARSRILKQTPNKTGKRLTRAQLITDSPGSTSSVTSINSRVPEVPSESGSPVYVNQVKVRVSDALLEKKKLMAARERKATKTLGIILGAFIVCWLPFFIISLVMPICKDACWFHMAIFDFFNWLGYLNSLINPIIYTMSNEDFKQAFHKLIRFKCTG
# [10] = DRUGMATRIX: Tumor Necrosis Factor (TNF), Non-Selective radioligand binding (ligand: [125I] TNF-alpha); assay type: cell membranes, Membrane; conditions: u-937; Not Active = under 50% inhibition at 10 µM
# [11] = target: Kappa-type opioid receptor (Homo sapiens, UniProt P41145); experiment: DRUGMATRIX: Opiate kappa (OP2, KOP) radioligand binding (ligand: [3H] Diprenorphine); assay type: cell membranes, HEK293, Membrane; conditions: hek293; Not Active = under 50% inhibition at 10 µM
# Sequence of Kappa-type opioid receptor (P41145 whole entry): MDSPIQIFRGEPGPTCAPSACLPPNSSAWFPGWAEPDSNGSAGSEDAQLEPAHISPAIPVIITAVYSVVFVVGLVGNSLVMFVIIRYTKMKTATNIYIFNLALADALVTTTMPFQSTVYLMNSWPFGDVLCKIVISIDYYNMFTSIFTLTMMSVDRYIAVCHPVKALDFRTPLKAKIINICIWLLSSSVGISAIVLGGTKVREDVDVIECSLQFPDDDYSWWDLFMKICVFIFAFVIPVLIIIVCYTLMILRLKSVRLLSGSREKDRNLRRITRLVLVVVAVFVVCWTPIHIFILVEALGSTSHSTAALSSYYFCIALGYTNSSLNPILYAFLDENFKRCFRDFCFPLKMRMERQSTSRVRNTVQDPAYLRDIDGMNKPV
# [12] = target: T2, Cholecystokinin receptor type A (Homo sapiens, UniProt P32238); assay type: cell membranes, Membrane; conditions: 1321-n1; further: in other assays of this panel Not Active means under 50% inhibition at 10 µM
# T2 sequence (P32238 whole entry): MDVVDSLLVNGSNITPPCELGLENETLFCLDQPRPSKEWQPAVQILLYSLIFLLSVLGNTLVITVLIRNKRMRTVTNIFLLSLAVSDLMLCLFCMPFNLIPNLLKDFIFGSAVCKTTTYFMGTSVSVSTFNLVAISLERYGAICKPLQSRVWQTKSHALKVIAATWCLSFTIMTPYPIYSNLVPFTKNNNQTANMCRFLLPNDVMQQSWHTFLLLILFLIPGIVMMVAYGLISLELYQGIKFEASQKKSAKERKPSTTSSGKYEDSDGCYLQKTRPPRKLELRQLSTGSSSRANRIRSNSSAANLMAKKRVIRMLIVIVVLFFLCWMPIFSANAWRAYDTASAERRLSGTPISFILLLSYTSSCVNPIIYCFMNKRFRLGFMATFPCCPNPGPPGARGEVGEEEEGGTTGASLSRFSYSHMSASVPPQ
# [13] = target: Aldo-keto reductase family 1 member B1 (Rattus norvegicus, UniProt P07943); assay type: tissue-based, Lens of camera-type eye
# [14] = DRUGMATRIX: Imidazoline I2, Central radioligand binding (ligand: [3H] Idazoxan); assay type: cell membranes, Rattus norvegicus, Wistar, Cerebral cortex, Membrane; conditions: Not Active = under 50% inhibition at 10 µM
# [15] = target: 5-hydroxytryptamine receptor 4 (Cavia porcellus, UniProt O70528); assay type: cell membranes, Dunkin-Hartley, Striatum, Membrane; further: in other assays of this panel Not Active means under 50% inhibition at 10 µM
# Sequence of 5-hydroxytryptamine receptor 4 (O70528 whole entry): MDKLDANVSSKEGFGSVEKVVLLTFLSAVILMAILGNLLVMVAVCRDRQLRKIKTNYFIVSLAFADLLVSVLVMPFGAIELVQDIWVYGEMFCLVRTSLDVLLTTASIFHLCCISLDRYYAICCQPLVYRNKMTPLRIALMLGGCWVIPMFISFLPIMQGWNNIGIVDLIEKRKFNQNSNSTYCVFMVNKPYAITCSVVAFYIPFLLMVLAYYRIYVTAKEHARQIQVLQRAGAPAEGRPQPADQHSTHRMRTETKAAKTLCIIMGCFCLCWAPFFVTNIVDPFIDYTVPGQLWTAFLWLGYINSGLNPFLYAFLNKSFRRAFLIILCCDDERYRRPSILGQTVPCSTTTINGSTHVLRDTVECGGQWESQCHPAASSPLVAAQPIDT
# [16] = DRUGMATRIX: GABAA, Flunitrazepam, Central radioligand binding (ligand: [3H] Flunitrazepam); assay type: cell membranes, Rattus norvegicus, Wistar, Brain, Membrane; conditions: Not Active = under 50% inhibition at 10 µM
# [17] = target: T3, 5-hydroxytryptamine receptor 1A (Rattus norvegicus, UniProt P19327); assay type: cell membranes, CHO-K1, Membrane; further: in other assays of this panel Not Active means under 50% inhibition at 10 µM
# T3 sequence (P19327 whole entry): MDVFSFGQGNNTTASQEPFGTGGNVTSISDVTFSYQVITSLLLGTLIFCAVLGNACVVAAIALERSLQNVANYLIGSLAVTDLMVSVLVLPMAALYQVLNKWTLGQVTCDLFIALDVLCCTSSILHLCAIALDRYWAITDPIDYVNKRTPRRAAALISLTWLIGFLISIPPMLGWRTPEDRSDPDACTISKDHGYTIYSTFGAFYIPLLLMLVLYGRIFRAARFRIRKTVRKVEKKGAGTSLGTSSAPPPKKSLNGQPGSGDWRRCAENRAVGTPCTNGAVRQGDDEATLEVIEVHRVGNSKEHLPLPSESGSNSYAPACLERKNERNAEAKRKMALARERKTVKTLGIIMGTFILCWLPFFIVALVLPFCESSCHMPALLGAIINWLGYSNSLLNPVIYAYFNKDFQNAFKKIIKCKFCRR
# Sequence of Sigma non-opioid intracellular receptor 1 (Q99720 whole entry): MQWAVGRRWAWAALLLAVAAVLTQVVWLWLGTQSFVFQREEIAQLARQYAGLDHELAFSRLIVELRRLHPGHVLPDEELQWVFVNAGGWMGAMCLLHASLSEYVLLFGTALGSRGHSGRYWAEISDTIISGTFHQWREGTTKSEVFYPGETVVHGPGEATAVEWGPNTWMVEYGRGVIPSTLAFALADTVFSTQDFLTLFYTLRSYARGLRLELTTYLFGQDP
structure (smiles),measurement,setting,value
NCCCC[C@H](N[C@@H](CCc1ccccc1)C(=O)O)C(=O)N1CCC[C@H]1C(=O)O [LISINOPRIL ANHYDROUS],IC50,[1],Not Active
same,IC50,[2]; hek293,Not Active
same,IC50,[3],Not Active
same,Ki,[3],Not Active
same,IC50,[4]; hek293,Not Active
same,IC50,Insulin receptor,Not Active
same,IC50,Melanocortin receptor 4,Not Active
same,IC50,[5],Not Active
same,Ki,[5],Not Active
same,IC50,[6],Not Active
same,Ki,[6],Not Active
same,IC50,[7],Not Active
same,Ki,[7],Not Active
same,IC50,[8],Not Active
same,IC50,Mu-type opioid receptor,Not Active
same,IC50,[9],Not Active
same,IC50,[10],Not Active
same,Ki,[10],Not Active
same,IC50,[11],Not Active
same,IC50,[12],Not Active
same,IC50,[13],Not Active
same,IC50,[14],Not Active
same,Ki,[14],Not Active
same,IC50,[15],Not Active
same,IC50,[16],Not Active
same,Ki,[16],Not Active
same,IC50,[17]; cho-k1,Not Active
CN1[C@@H]2CC[C@H]1C[C@@H](OC(=O)c1c[nH]c3ccccc13)C2 [TROPISETRON],IC50,[1],Not Active
same,IC50,[2]; hek293,Not Active
same,IC50,[3]; read-out: IC50,3020 nM
same,Ki,[3]; read-out: Ki,2400 nM
same,IC50,[4]; hek293,Not Active
same,IC50,Insulin receptor,Not Active
same,IC50,Melanocortin receptor 4,Not Active
same,IC50,[5],Not Active
same,Ki,[5],Not Active
same,IC50,[6],Not Active
same,Ki,[6],Not Active
same,IC50,[7]; read-out: IC50,6.76 nM
same,Ki,[7]; read-out: Ki,1.52 nM
same,IC50,[8],Not Active
same,IC50,Mu-type opioid receptor,Not Active
same,IC50,[9],Not Active
same,IC50,[10],Not Active
same,Ki,[10],Not Active
same,IC50,[11],Not Active
same,IC50,[12],Not Active
same,IC50,[13],Not Active
same,IC50,[14],Not Active
same,Ki,[14],Not Active
same,IC50,[15]; read-out: IC50,324 nM
same,Ki,[15]; read-out: Ki,54 nM
same,IC50,[16]; read-out: IC50,1140 nM
same,Ki,[16]; read-out: Ki,926 nM
same,IC50,[17]; cho-k1,Not Active
C[C@](N)(Cc1ccc(O)cc1)C(=O)O [METYROSINE],IC50,[1],Not Active
same,IC50,[2]; hek293,Not Active
same,IC50,[3],Not Active
same,Ki,[3],Not Active
same,IC50,[4]; hek293,Not Active
same,IC50,Insulin receptor,Not Active
same,IC50,Melanocortin receptor 4,Not Active
same,IC50,[5],Not Active
same,Ki,[5],Not Active
same,IC50,[6],Not Active
same,Ki,[6],Not Active
same,IC50,[7],Not Active
same,Ki,[7],Not Active
same,IC50,[8],Not Active
same,IC50,Mu-type opioid receptor,Not Active
same,IC50,[9],Not Active
same,IC50,[10],Not Active
same,Ki,[10],Not Active
same,IC50,[11],Not Active
same,IC50,[12],Not Active
same,IC50,[13],Not Active
same,IC50,[14],Not Active
same,Ki,[14],Not Active
same,IC50,[15],Not Active
same,IC50,[16],Not Active
same,Ki,[16],Not Active
same,IC50,[17]; cho-k1,Not Active
CC1(C)[C@H]2CC[C@]1(C)C(=O)C2 [(-)-CAMPHOR],IC50,[1],Not Active
same,IC50,[2]; hek293,Not Active
same,IC50,[3],Not Active
same,Ki,[3],Not Active
same,IC50,[4]; hek293,Not Active
same,IC50,Insulin receptor,Not Active
same,IC50,Melanocortin receptor 4,Not Active
same,IC50,[5],Not Active
same,Ki,[5],Not Active
same,IC50,[6],Not Active
same,Ki,[6],Not Active
same,IC50,[7],Not Active
same,Ki,[7],Not Active
same,IC50,[8],Not Active
same,IC50,Mu-type opioid receptor,Not Active
same,IC50,[9],Not Active
same,IC50,[10],Not Active
same,Ki,[10],Not Active
same,IC50,[11],Not Active
same,IC50,[12],Not Active
same,IC50,[13],Not Active
same,IC50,[14],Not Active
same,Ki,[14],Not Active
same,IC50,[15],Not Active
same,IC50,[16],Not Active
same,Ki,[16],Not Active
same,IC50,[17]; cho-k1,Not Active
CC(C)(O)c1ccccc1CC[C@@H](SCC1(CC(=O)O)CC1)c1cccc(/C=C/c2ccc3ccc(Cl)cc3n2)c1 [MONTELUKAST],IC50,[1],Not Active
same,IC50,[2]; hek293,Not Active
same,IC50,[4]; read-out: IC50,4300 nM
same,Ki,[4]; read-out: Ki,3200 nM
same,IC50,Insulin receptor,Not Active
same,IC50,Melanocortin receptor 4,Not Active
same,IC50,[8],Not Active
same,IC50,Mu-type opioid receptor,Not Active
same,IC50,[9],Not Active
same,IC50,[11],Not Active
same,IC50,[12],Not Active
same,IC50,[13],Not Active
same,IC50,[15],Not Active
same,IC50,[17]; cho-k1,Not Active
CN1CCN2c3ccccc3Cc3ccccc3C2C1 (stereo not drawn) [MIANSERIN],IC50,[1],Not Active
same,IC50,[2]; read-out: IC50,83 nM
same,Ki,[2]; read-out: Ki,41 nM
same,IC50,[4]; hek293,Not Active
same,IC50,Insulin receptor,Not Active
same,IC50,Melanocortin receptor 4,Not Active
same,IC50,[8],Not Active
same,IC50,Mu-type opioid receptor,Not Active
same,IC50,[9],Not Active
same,IC50,[11],Not Active
same,IC50,[12],Not Active
same,IC50,[13],Not Active
same,IC50,[15],Not Active
same,IC50,[17]; read-out: IC50,872 nM
same,Ki,[17]; read-out: Ki,498 nM
